Source: publication PMC8639922, “KSHV transactivator-derived small peptide traps coactivators to attenuate MYC and inhibits leukemia and lymphoma cell growth” (Communications Biology, 2021)
Square brackets hold non-standard residues; d marks the D form. Peptide text beside a SMILES is read from it. Orn = NCCC[C@H](N)C(=O)O; βAla = NCCC(=O)O

Assay type: in vivo, BALB/c mice
Conditions: BALB/c female, 10 mg/kg i.p., 5 day-on 2 day-off, two weeks, average n=5/group
Protocol: Based on strong and selective MYC down-regulation and cell killing activity of cancer cells in vitro, we next studied the therapeutic potential of VGN50 by examining the efficacy of cancer cell killing over toxicities to mice in a PEL xenograft model with BCBL-1 cells. Pilot studies determined that the peptide was well-tolerated in immunocompetent mice when administered as 10 mg/kg peptide via intraperitoneal (i.p.) injection with a 5-day-on 2-day-off schedule for 2 weeks, as shown by no notable changes in body weight, complete blood counts, and serum biochemical properties (Supplementary Fig. 5). Based on the drug schedule, we examined the effects of the peptide on xenograft PEL cell growth. In this established model, BCBL-1 cells grow in the peritoneal cavity resulting in the accumulation of ascites, which can be measured as a body weight gain that corresponds to the volume of ascites. We inoculated male NRG mice with 2 × 10^7 BCBL-1 cells via i.p. injection followed by injections of VGN50 (10 mg/kg), mutant control peptide or PBS, daily for 10 days starting from 2 days after (day 0) tumor inoculation. All mice in the control PBS-treated groups reached the humane endpoint by 10 days (Fig. 6a). […] At the termination point, tumor growth was also validated by flow cytometry analysis of PEL cells in ascites fluid (Fig. 6b, c). […] A similar phenotype is reported in MYC knock-out cardiac myocytes and keratinocytes[56],[57].
PBS VGN50 Mutant Normal ranges […]
Ext ended Dat a Fi gure 5. BALB/ c mi ce ( 8 weeks ol d, female, n=5/ gr oup) wer e i nj ect ed wi t h 10mg/ kg of VGN50 or mut ant pept i de i n 200 uL i.p. wi t h a 5 day-on 2 day off schedul e f or t wo week s . Body wei ght changes wer e measur ed dai l y ( a) . At t he end of t he exper i ment , f r esh bl ood and ser um col l ect ed wer e subj ect ed f or complet e blood count s and serum biochemical pr oper t i es, r espect i vel y ( b) .
(1 picture or pasted object on this page, not shown here)

CC(C)C[C@H](NC(=O)CCNC(=O)[C@H](CCCNC(=N)N)NC(=O)[C@H](CCCNC(=N)N)NC(=O)[C@H](CCCNC(=N)N)NC(=O)[C@H](CCCN)NC(=O)[C@H](CCCNC(=N)N)NC(=O)[C@H](CCCNC(=N)N)NC(=O)[C@H](CCCCN)NC(=O)[C@H](CCCCN)NC(=O)[C@H](N)CCCNC(=N)N)C(=O)N[C@@H](CO)C(=O)N[C@@H](CO)C(=O)N[C@@H](C)C(=O)N[C@@H](C)C(=O)N[C@@H](C)C(=O)NCC(=O)N[C@@H](CC(C)C)C(=O)N[C@@H](Cc1ccc(O)cc1)C(=O)N[C@@H](CCC(N)=O)C(=O)N[C@@H](CC(C)C)C(=O)N[C@@H](CC(=O)O)C(=O)N[C@H](C(=O)O)[C@@H](C)O [Mt-P] (H-[dR]KKRR[Orn]RRR[βAla]LSSAAAGLYQLDT-OH; N-terminus and C-terminus assumed)
Absolute Basophil cells (normal 0.0-0.1): 0.06 K/ul | Absolute Eosinophil cells (normal 0.0-0.1): 0.14 K/ul | Total Bilirubin (normal 0.0-0.2): 0.05 mg/dL | Creatinine (normal 0.0-0.3): 0.20 mg/dL | Basophil % (normal 0.0-0.5): 0.70% | Eosinophil % (normal 0.0-0.8): 2.14% | Alanine Transaminase (normal 0-403): 82.85 U/L | Aspartate Transaminase (normal 0-552): 651.13 U/L | Absolute Monocyte cells (normal 0.2-1.0): 0.43 K/ul | Absolute Neutrophil cells (normal 1.0-3.7): 1.12 K/ul | Monocyte % (normal 2.5-7.5): 5.52% | Albumin (normal 2.9-4.0): 3.67 g/dL | Absolute Lymphocyte cells (normal 4.3-10.6): 2.54 K/ul | Total Protein (normal 4.7-6.1): 4.81 g/dL | MPV (normal 5.0-20.0): 3.05 fL | WBC (normal 5.1-14.7): 4.22 K/ul | Potassium (normal 6.9-10.0): 6.90 mmol/L | Phosphorus (normal 7.5-10.7): 7.46 mg/dL | Calcium (normal 9.6-11-5): 9.39 mg/dL | Hemoglobin (normal 11.7-16.2): 7.07 g/dL | RDW % (normal 12.4-27.0): 10.08% | Neutrophil % (normal 12.5-31.2): 16.70% | MCH (normal 13.3-16.7): 7.62 pg | Blood Urea Nitrogen (normal 15.2-34.7): 20.03 mg/dL | MCHC (normal 27.6-32.9): 13.18 g/dL | Hematocrit % (normal 38.3-54.0): 27.72% | MCV (normal 45.3-53.6): 29.04 fL | Alkaline Phosphatase (normal 49-172): 129.20 U/L | Lymphocyte % (normal 62.9-82.7): 31.21% | Chloride (normal 105-118): 112.13 mmol/L | Glucose (normal 130-254): 194.73 mg/dL | Sodium (normal 150-160): 145.25 mmol/L | Platelets (normal 574-1079): 333.29 K/uL | Amylase (normal 2463-6660): 1624.05 U/L
